Assay results as given in PubChem BioAssay (NCI).
Where “and” joins values, the source holds several entries; their conditions need not be identical. Identical values can stand only once.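 Assay format: 96-well plates, 48-hour exposure. GI50 marks 50% less growth. TGI: concentration producing complete growth inhibition.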

Tests used:
Assay in all cases: inhibition of tumour cell growth, NCI panel, 48 h
CAKI-1 renal = system: CAKI-1 renal
HCT-15 colon = system: HCT-15 colon
HOP-62 NSCLC = system: HOP-62 NSCLC
M14 melanoma = system: M14 melanoma
OVCAR-4 ovarian = system: OVCAR-4 ovarian
OVCAR-5 ovarian = system: OVCAR-5 ovarian
SF-268 CNS = system: SF-268 CNS
SNB-75 CNS = system: SNB-75 CNS
SW-620 colon = system: SW-620 colon
UACC-257 melanoma = system: UACC-257 melanoma

| Compound | GI50 (CAKI-1 renal) | TGI (CAKI-1 renal) | GI50 (HCT-15 colon) | TGI (HCT-15 colon) | GI50 (HOP-62 NSCLC) | TGI (HOP-62 NSCLC) | GI50 (M14 melanoma) | TGI (M14 melanoma) | GI50 (OVCAR-4 ovarian) | TGI (OVCAR-4 ovarian) | GI50 (OVCAR-5 ovarian) | TGI (OVCAR-5 ovarian) | GI50 (SF-268 CNS) [µM] | TGI (SF-268 CNS) | GI50 (SNB-75 CNS) | TGI (SNB-75 CNS) | GI50 (SW-620 colon) | TGI (SW-620 colon) | GI50 (UACC-257 melanoma) [µM] | TGI (UACC-257 melanoma) |
| --- | --- | --- | --- | --- | --- | --- | --- | --- | --- | --- | --- | --- | --- | --- | --- | --- | --- | --- | --- | --- |
| COc1ccc(C(=O)COc2ccc(/C=C3\COc4ccc(OC)cc4C3=O)cc2)cc1 | 32.4 µM | > 100 µM | 22.3 µM | > 100 µM | 24.8 µM | 47.7 µM | 39.7 µM | > 100 µM | 17.4 µM | 69.2 µM | 30.2 µM | 86.9 µM | 23.7 | 60.5 µM | 20 µM | 69.9 µM | 4.99 µM | > 100 µM | 52.1 | > 100 µM |
| CC1(C)[C@@H](OC(N)=O)[C@H]2O[C@H]2[C@]2(C=O)[C@H]3CC[C@]4(C)[C@@H](c5ccc(=O)oc5)[C@@H](Cl)C[C@]4(O)C3=CC[C@@H]12 | 0.00448 µM | 0.00859 µM | 0.0056 µM | 0.0128 µM | 0.00399 µM | 0.00785 µM | 0.00639 µM | 0.0177 µM | 0.00555 µM | 0.0139 µM | 0.00606 µM | 0.0151 µM | 0.0037 | 0.00749 µM | 0.00449 µM | 0.00972 µM | 0.00529 µM | 0.0115 µM | 0.0059 | 0.0164 µM |
| O=C(c1ccccc1)C1OC12C(=O)Nc1ccccc12 (stereo not given) |  | 46 µM |  |  |  | > 100 µM |  | 63 µM |  | > 100 µM |  | > 100 µM |  | > 100 µM |  | 42.2 µM |  | 62.6 µM |  | > 100 µM |
| O=C1OC2CCCC[C@@H]2C2C[C@]34CCCCC3[C@@H](C(=O)O4)C12 (stereo not given in full) |  |  |  | > 100 µM |  | > 100 µM |  | > 100 µM |  | > 100 µM |  | > 100 µM |  | > 100 µM |  | > 100 µM |  | > 100 µM |  | > 100 µM |
| CN(C)c1cc[c]([Sn]([c]2ccc(N(C)C)cc2)([c]2ccc(N(C)C)cc2)[c]2ccc(N(C)C)cc2)cc1 | 5.13 µM | 19.4 µM | > 100 µM | > 100 µM |  |  | 9.18 µM | 21.6 µM | 7.65 µM | 20.7 µM | 16.2 µM | 33.2 µM | 3.67 | 25.4 µM | 4.36 µM | 17.2 µM | 4.66 µM | 20.5 µM |  |  |
| CCn1c(-c2ccc(OC(C)=O)cc2)c(C)c2cc(OC(C)=O)ccc21 |  | > 100 µM |  | > 100 µM |  | 47.7 µM |  | 38.9 µM |  | 59.8 µM |  | 55 µM |  | 58.5 µM |  | 50.2 µM |  | 82.2 µM |  | 94.9 µM |
| CCc1nc(C(N)=O)c(Nc2ccc(N3CCC(N4CCN(C)CC4)CC3)c(OC)c2)nc1NC1CCOCC1 | 1.24 µM and 0.236 µM and 1.21 µM | 12.9 µM and > 10 µM and 13.4 µM | 1.68 µM and 0.38 µM and 1.41 µM | 15.7 µM and > 10 µM and 16 µM | 1.26 µM and 0.238 µM and 1.2 µM | 16.3 µM and > 2.98 µM and 17.6 µM | 1.1 µM and 0.253 µM and 0.961 µM | 16.4 µM and > 2.57 µM and 17.9 µM | 12.8 µM and > 10 µM and 13.8 µM | 27.8 µM and > 10 µM and 32.2 µM | 0.484 µM and 0.279 µM and 0.486 µM | 14.5 µM and > 10 µM |  | 22.8 µM and > 2.72 µM and 24.5 µM | 0.598 µM and 0.423 µM and 0.67 µM | 5.4 µM and 1.91 µM and 7.74 µM | 1.33 µM and 0.366 µM and 1.29 µM | 13.6 µM and > 10 µM and 14.8 µM |  | 24.5 µM and > 10 µM and 24.3 µM |
| O=c1c2cc(Br)cc(Br)c2nc(CCCl)n1CCO |  | > 100 µM |  |  |  | > 100 µM |  | > 100 µM |  | > 100 µM |  | > 100 µM |  | > 100 µM |  | 93.5 µM |  | > 100 µM |  | > 100 µM |
| CCOC(=O)NC(=O)c1cn(CCCOC(=O)CCCCCCCCCCC(=O)OCCCn2cc(C(=O)NC(=O)OCC)c(=O)[nH]c2=O)c(=O)[nH]c1=O |  |  |  |  |  | > 100 µM |  | > 100 µM |  | > 100 µM |  | > 100 µM |  | > 100 µM |  |  |  | > 100 µM |  | > 100 µM |
| C1C[OH+]CC[OH+]CC[OH+]CC[OH+]CC[OH+]1.[Cl-].[V] | 82.2 µM | > 100 µM | > 100 µM | > 100 µM |  |  | 45.3 µM | > 100 µM | 6.03 µM | 41.6 µM |  |  | 73.2 | > 100 µM | 16.2 µM | 41.2 µM | > 100 µM | > 100 µM | 29.3 | > 100 µM |
| C1CCC([PH+](C2CCCCC2)C2CCCCC2[PH+](C2CCCCC2)C2CCCCC2)CC1.O=C(C1[CH-]CCCC1)C1CCCC[N-]1.[Au] (stereo not given) | 1.07 µM | 2.72 µM |  |  | 0.323 µM | 2.96 µM | 0.26 µM | 1.4 µM |  |  | 0.343 µM | 1.53 µM | 0.343 | 1.91 µM | 0.179 µM | 1.05 µM |  |  | 0.337 | 3.36 µM |
| CC(=O)N[C@H]1CSSC[C@@H](C(N)=O)NC(=O)[C@H](C(C)C)NC(=O)[C@H](C)NC(=O)[C@H](Cc2cnc[nH]2)NC1=O | > 100 µM | > 100 µM | > 100 µM | > 100 µM | > 100 µM | > 100 µM | > 100 µM | > 100 µM | > 100 µM | > 100 µM | > 100 µM | > 100 µM | > 100 | > 100 µM |  |  |  |  | > 100 | > 100 µM |
| O=C1CC2c3ccccc3CCC2c2ccccc21 (stereo not given) |  | > 100 µM |  | 50.1 µM |  | > 100 µM |  | 33.4 µM |  |  |  | > 100 µM |  | > 100 µM |  | > 100 µM |  | > 100 µM |  | 73.2 µM |
| CCn1c(SCc2ccc(C)cc2)nnc1-c1nn(-c2ccc(Cl)cc2Cl)c(-c2ccc(Cl)cc2)c1C | 2.83 µM | 12.6 µM | 2.7 µM | 11.4 µM | 2.73 µM | 11.9 µM | 1.99 µM | 10.8 µM | 1.79 µM | 12.4 µM | 3.54 µM | 15.2 µM | 3.06 | 14.9 µM | 2.21 µM | 11.7 µM | 2.56 µM | 12.6 µM |  |  |
| COc1cc(/C=C(\C#N)c2ccccc2)cc(OC)c1 |  | > 100 µM |  | > 100 µM |  | > 100 µM |  | > 100 µM |  | > 100 µM |  | > 100 µM |  | > 100 µM |  |  |  | > 100 µM |  | 51 µM |
| O=C1CC2CCCC23CC2(CCN13)OCCO2 (stereo not given) |  | > 100 µM |  |  |  | > 100 µM |  | > 100 µM |  | > 100 µM |  | > 100 µM |  | > 100 µM |  | > 100 µM |  | > 100 µM |  | > 100 µM |
| Clc1ccc2c(c1)-c1c3c(nn1-c1ccccc1)-c1ccccc1SC3O2 (stereo not given) |  |  |  |  |  | > 100 µM |  |  |  |  |  | > 100 µM |  | > 100 µM |  | > 100 µM |  | > 100 µM |  | > 100 µM |
